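Cells were grown in 96-well plates and exposed to each compound for 48 hours at five concentrations; endpoints were interpolated linearly between bracketing concentrations, or set to the highest concentration if not reached. Here, GI50 denotes the concentration required for 50% inhibition of growth. At the TGI there is no net growth.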
Experiments:
Test in all cases: DTP human tumour cell line panel, 48 h
MOLT-4 leukemia = tested on: MOLT-4 leukemia
SK-MEL-28 melanoma = tested on: SK-MEL-28 melanoma
UACC-257 melanoma = tested on: UACC-257 melanoma
MDA-MB-435 = tested on: MDA-MB-435
MDA-N = tested on: MDA-N
EKVX NSCLC = tested on: EKVX NSCLC
HOP-62 NSCLC = tested on: HOP-62 NSCLC
CCRF-CEM leukemia = tested on: CCRF-CEM leukemia
SNB-75 CNS = tested on: SNB-75 CNS
NCI-H522 lung = tested on: NCI-H522 lung

| SMILES | TGI (MOLT-4 leukemia) | TGI (SK-MEL-28 melanoma) | TGI (UACC-257 melanoma) | TGI (MDA-MB-435) | TGI (MDA-N) | TGI (EKVX NSCLC) | TGI (HOP-62 NSCLC) | TGI (CCRF-CEM leukemia) | TGI (SNB-75 CNS) | GI50 (MOLT-4 leukemia) | GI50 (SK-MEL-28 melanoma) | GI50 (UACC-257 melanoma) | GI50 (MDA-MB-435) | GI50 (NCI-H522 lung) | TGI (NCI-H522 lung) | GI50 (HOP-62 NSCLC) | GI50 (CCRF-CEM leukemia) | GI50 (SNB-75 CNS) |
| --- | --- | --- | --- | --- | --- | --- | --- | --- | --- | --- | --- | --- | --- | --- | --- | --- | --- | --- |
| CC(=O)CC(=O)N1CCSC1=S | > 10 µM | > 10 µM | > 10 µM | > 10 µM | > 10 µM | > 10 µM | > 10 µM | > 10 µM | > 10 µM |  |  |  |  |  |  |  |  |  |
| COc1cc2nc(N3CCC[C@H](NC4=CC(=O)c5ccccc5C4=O)C3)nc(N)c2cc1OC | 5.9 µM | 3.67 µM | 3.94 µM | 4.03 µM |  |  | 4.48 µM | 5.45 µM | 3.3 µM | 2.37 µM | 1.97 µM | 2.18 µM | 2.05 µM | 1.83 µM | 3.58 µM | 2.26 µM | 1.79 µM | 1.64 µM |
| O=CC(O)C(O)C(O)C(O)COC(=O)NCCCCC(=O)C(F)(F)C(F)(F)C(F)(F)C(F)(F)C(F)(F)C(F)(F)C(F)(F)F (stereo unspecified) | 31.1 µM | > 100 µM |  | 62.4 µM | 73.5 µM |  | 62.8 µM | 56 µM | 59.5 µM |  |  |  |  |  |  |  |  |  |
| CC(C)(C)c1cc(OCc2nnc3sc(Cc4ccccc4)nn23)c(Cl)cc1OCc1nnc2sc(Cc3ccccc3)nn12 | > 100 µM | > 100 µM | 63.5 µM | 82.9 µM | > 100 µM | > 100 µM | > 100 µM | 8.97 µM | 84.8 µM |  |  |  |  |  | > 100 µM |  |  |  |
| Cc1cc(C)c2c(c1)C/C(=C\c1cccc(C)c1C(=O)O)C2=O | > 100 µM | > 100 µM | > 100 µM |  | > 100 µM | > 100 µM | > 100 µM | > 100 µM | > 100 µM |  |  |  |  |  | > 100 µM |  |  |  |
| c1ccc2c[n+](CCCC[n+]3ccc4ccccc4c3)ccc2c1 |  | > 100 µM | > 100 µM | > 100 µM | > 100 µM | > 100 µM | > 100 µM | > 100 µM | > 100 µM |  |  |  |  |  |  |  |  |  |
| O=c1cc(N2CCOCC2)n2c(ccc3ccccc32)n1 | > 100 µM |  | > 100 µM | > 100 µM | 63 µM | > 100 µM | > 100 µM | > 100 µM | > 100 µM |  |  |  |  |  | > 100 µM |  |  |  |
| C/C(=N\Nc1nc2ccccc2[nH]1)c1ncccn1 | > 100 µM |  | > 35.2 µM |  | > 100 µM | 25.8 µM | 49.4 µM | > 100 µM | > 90.3 µM |  |  |  |  |  | > 64.3 µM |  |  |  |
| O=[N+]([O-])c1ccc(N2N=C(c3c(O)ccc4ccccc34)CC2c2ccc(Cl)cc2)c([N+](=O)[O-])c1 (stereo unspecified) | 32.4 µM | > 100 µM | > 100 µM | > 100 µM | > 100 µM |  | 61.6 µM | 31 µM | > 100 µM |  |  |  |  |  | > 100 µM |  |  |  |
| COc1cccc2c1OC1c3ccccc3OCC1(O)C2 (stereo unspecified) | > 100 µM |  | > 100 µM | > 100 µM | > 100 µM | > 100 µM | > 100 µM | > 100 µM | > 100 µM |  |  |  |  |  | > 100 µM |  |  |  |
| S=C1C(=Nc2ccccc2)N(c2ccccc2)/C(=N\c2cccc[n+]2Cc2ccccc2)N1c1ccccc1 | > 100 µM | 37.3 µM | 31.6 µM | 22.3 µM | 25 µM | 53.8 µM | 29.8 µM |  | 25.5 µM |  |  |  |  |  | 31.2 µM |  |  |  |
| Cc1c(OCc2cccc3ccccc23)ccc2c(=O)cc(SCCN3CCOCC3)oc12 | > 100 µM | > 100 µM | > 100 µM | > 100 µM |  | > 100 µM | > 100 µM | > 100 µM | > 100 µM |  |  |  |  |  | > 100 µM |  |  |  |
| COC(=O)/C=C\n1nc(Br)c(=O)[nH]c1=O |  | > 100 µM | > 100 µM | > 100 µM | > 100 µM | > 100 µM | > 100 µM | > 100 µM | > 100 µM |  |  |  |  |  | > 100 µM |  |  |  |
| COc1cccc(C(C#N)NNC(=O)c2c(Cl)c(Cl)c(Cl)c(Cl)c2-c2nc3ccc(C(=O)c4ccccc4)cc3[nH]2)c1O (stereo unspecified) | > 100 µM | > 100 µM | > 100 µM |  |  | > 100 µM | 8.59 µM | > 100 µM | 7.46 µM |  |  |  |  |  |  |  |  |  |
| Cc1nc2ccc(Br)cc2c(=O)n1-c1ccc(N)cc1 | > 100 µM | > 100 µM | > 100 µM | > 100 µM | > 100 µM | > 100 µM | > 100 µM | > 100 µM | > 100 µM |  |  |  |  |  |  |  |  |  |
| Cc1ccc(N=C/C=C(\Nc2ccc(C)cc2)c2ccc3ccccc3c2)cc1 | 0.533 µM | 11.2 µM | 16.6 µM | 0.493 µM |  |  | 5.4 µM | 0.558 µM | 6.16 µM |  |  |  |  |  | 11 µM |  |  |  |
| [N-]=[N+]=Nc1nc2ccccc2c(N=[N+]=[N-])c1Cl | > 100 µM | > 100 µM | > 100 µM | > 100 µM | > 100 µM |  | > 100 µM | > 100 µM | > 100 µM |  |  |  |  |  |  |  |  |  |
| CC(=O)OCC1OC(SC2=NC(=O)CS2)C(OC(C)=O)C(OC(C)=O)C1OC(C)=O (stereo unspecified) | > 100 µM | > 100 µM | > 100 µM | > 100 µM | > 100 µM |  | > 100 µM | > 100 µM | > 100 µM |  |  |  |  |  | > 100 µM |  |  |  |
| COC(=O)c1c2c(cc3c1CC1(Cc4cc5c(c(C)c4C1)CCC5)C3)CCC2 (stereo unspecified) | > 100 µM | > 100 µM | > 100 µM | > 100 µM | > 100 µM | > 100 µM | > 100 µM | > 100 µM |  |  |  |  |  |  | > 100 µM |  |  |  |
| O=c1[nH]n(CCc2ccccc2CCl)c2ccc([N+](=O)[O-])cc12 | > 100 µM | > 100 µM | > 100 µM | > 100 µM |  | 36.1 µM | > 100 µM | > 100 µM |  |  |  |  |  |  | > 100 µM |  |  |  |
| CC(C)[C@H](C)/C=C/[C@@H](C)C1CC[C@H]2[C@@]34C=C[C@]5(C[C@@H](O)CC[C@]5(C)[C@H]3CC[C@]12C)OO4 (stereo partly specified) | > 100 µM | > 100 µM | > 100 µM | 91.6 µM | > 100 µM | > 100 µM | > 100 µM |  | > 100 µM |  |  |  |  |  |  |  |  |  |
| C=CC(C)(C)/C=C/c1ccc(O)cc1 | > 100 µM | > 100 µM | > 100 µM | > 100 µM | > 100 µM | > 100 µM | > 100 µM | > 100 µM |  |  |  |  |  |  | > 100 µM |  |  |  |
